# In PubChem BioAssay AID1584 (NINDS Approved Drug Screening Program, 2009):
# Records with an inconclusive call do not appear.
# Molecular target: Huntingtin (Homo sapiens) (UniProt P42858)
# Test: mutant huntingtin aggregation blockers – QA1, dose response (AID 1584)
# Conditions: in vitro mutant huntingtin aggregation assay
# Chain of Huntingtin (Homo sapiens) (P42858 whole entry, looked up): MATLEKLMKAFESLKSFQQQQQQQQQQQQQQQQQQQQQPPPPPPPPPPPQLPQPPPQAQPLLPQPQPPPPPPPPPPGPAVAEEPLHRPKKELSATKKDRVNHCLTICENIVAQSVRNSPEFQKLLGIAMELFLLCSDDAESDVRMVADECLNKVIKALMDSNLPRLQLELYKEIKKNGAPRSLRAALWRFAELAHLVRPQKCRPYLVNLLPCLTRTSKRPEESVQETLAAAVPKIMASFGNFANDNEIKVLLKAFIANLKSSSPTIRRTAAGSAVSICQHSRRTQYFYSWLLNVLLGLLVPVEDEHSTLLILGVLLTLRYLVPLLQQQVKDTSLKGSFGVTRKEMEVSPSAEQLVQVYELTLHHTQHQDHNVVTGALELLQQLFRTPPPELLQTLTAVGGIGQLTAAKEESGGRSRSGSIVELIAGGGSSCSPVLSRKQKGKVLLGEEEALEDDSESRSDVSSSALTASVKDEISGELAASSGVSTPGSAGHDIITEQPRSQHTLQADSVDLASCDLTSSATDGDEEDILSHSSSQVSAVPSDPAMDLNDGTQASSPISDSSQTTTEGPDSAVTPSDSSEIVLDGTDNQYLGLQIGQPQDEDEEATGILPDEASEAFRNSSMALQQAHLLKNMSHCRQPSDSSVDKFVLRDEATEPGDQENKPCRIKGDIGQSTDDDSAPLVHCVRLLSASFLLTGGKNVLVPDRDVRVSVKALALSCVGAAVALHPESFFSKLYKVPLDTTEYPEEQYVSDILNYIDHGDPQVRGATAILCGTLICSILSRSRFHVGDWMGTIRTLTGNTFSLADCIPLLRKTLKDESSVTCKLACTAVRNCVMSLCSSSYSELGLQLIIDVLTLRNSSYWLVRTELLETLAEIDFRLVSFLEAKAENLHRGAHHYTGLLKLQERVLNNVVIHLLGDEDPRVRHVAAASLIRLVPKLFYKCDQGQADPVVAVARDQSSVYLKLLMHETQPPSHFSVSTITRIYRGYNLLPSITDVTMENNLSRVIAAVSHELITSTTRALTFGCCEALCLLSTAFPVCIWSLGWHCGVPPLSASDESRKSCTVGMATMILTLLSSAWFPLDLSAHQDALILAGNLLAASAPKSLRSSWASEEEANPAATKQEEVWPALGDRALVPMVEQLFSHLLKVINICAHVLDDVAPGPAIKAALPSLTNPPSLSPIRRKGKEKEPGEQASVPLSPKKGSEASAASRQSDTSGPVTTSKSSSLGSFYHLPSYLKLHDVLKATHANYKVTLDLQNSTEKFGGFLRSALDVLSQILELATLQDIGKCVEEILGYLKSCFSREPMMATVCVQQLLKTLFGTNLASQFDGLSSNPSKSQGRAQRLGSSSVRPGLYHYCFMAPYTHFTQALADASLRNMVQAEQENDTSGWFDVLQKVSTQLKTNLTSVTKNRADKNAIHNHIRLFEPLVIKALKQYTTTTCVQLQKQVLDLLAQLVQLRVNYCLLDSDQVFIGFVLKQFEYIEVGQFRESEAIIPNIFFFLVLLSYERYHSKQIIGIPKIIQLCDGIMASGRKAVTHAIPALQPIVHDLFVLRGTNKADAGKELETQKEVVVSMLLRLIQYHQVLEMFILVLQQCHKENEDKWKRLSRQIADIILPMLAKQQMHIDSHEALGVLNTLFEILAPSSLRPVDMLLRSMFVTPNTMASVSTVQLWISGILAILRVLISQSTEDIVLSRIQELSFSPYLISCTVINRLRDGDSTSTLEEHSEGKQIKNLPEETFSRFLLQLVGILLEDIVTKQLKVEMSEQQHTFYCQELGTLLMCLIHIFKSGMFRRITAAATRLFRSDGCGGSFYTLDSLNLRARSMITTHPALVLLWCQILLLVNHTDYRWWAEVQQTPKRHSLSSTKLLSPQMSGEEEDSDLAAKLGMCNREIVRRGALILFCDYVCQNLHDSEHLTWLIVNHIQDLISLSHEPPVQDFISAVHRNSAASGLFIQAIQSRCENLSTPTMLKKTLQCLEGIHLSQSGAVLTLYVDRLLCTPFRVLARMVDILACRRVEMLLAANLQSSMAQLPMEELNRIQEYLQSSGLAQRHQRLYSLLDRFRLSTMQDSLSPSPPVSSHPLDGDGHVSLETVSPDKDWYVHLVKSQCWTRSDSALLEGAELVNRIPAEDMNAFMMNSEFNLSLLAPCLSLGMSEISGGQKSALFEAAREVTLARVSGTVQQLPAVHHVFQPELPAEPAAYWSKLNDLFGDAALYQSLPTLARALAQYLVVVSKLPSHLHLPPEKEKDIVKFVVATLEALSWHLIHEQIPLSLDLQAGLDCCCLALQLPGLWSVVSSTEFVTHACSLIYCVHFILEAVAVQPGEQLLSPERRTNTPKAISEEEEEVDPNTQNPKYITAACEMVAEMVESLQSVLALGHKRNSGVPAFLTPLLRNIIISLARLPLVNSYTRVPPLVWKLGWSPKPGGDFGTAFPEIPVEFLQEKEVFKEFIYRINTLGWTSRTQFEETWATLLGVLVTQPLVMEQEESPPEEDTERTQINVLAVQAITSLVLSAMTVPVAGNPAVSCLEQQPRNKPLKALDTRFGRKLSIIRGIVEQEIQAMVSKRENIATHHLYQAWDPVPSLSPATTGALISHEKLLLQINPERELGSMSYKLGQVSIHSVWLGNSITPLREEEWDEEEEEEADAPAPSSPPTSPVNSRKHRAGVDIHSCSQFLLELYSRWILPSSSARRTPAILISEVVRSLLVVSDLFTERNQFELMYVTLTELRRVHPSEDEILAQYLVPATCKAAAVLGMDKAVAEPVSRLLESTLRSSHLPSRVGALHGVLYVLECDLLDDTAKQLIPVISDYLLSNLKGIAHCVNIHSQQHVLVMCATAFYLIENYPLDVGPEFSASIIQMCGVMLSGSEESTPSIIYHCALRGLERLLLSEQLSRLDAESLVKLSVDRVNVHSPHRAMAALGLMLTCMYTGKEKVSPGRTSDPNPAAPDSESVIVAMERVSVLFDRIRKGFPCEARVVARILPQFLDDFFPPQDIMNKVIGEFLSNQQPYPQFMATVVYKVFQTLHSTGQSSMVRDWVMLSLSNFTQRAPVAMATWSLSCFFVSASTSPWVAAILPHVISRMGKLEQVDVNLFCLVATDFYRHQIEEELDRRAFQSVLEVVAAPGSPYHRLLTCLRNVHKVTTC
row,SMILES,EC50 [µM]
1,O=c1c(O)c(-c2ccc(O)cc2O)oc2cc(O)cc(O)c12,17
2,Cc1cc(/C=C/c2ccc3cc(N(C)C)ccc3[n+]2C)c(C)n1-c1ccccc1,21.7
3,C=C1c2c(Cl)ccc(O)c2C(O)=C2C(=O)[C@]3(O)C(O)=C(C(N)=O)C(=O)[C@@H](N(C)C)[C@@H]3[C@@H](O)[C@H]12,14.8
4,O=C1c2c(O)cccc2Cc2cccc(O)c21,10.5
5,Cc1cc2c(C(C)C)c(O)c(O)c(C=O)c2c(O)c1-c1c(C)cc2c(C(C)C)c(O)c(O)c(C=O)c2c1O,0.65
6,CC(C)=CCCC1(C)C=Cc2c(O)c3c(c(CC=C(C)C)c2O1)OC12C(=CC4CC1C(C)(C)OC2(C/C=C(/C)C(=O)O)C4=O)C3=O (stereo not given),0.87
7,C=Cc1c(C)c2cc3[nH]c(cc4nc(cc5nc(cc1[nH]2)C(C)=C5CCC(=O)O)C(CCC(=O)O)=C4C)c(C)c3C=C,19.7
8,C[n+]1cc2c3c(ccc2c2ccc4cc5c(cc4c21)OCO5)OCO3,5.7
9,O=C1C=CC(=O)c2c(O)cccc21,2.67
10,C[C@@]1(C(=O)O)CC[C@]2(C)CC[C@]3(C)C4=CC=C5C=C(O)C(=O)C=C5[C@]4(C)CC[C@@]3(C)[C@@H]2C1,3.55
